Results: patent publication EP3448864B1, “SILSE[…] TRANSPORT COMPOUNDS” (Technische Universität Darmstadt, priority 2016, dated 2017)

Legend:
Assay type in all cases: cell-based
[1] = system: HeLa-Zellen; experiment: Flow cytometry quantification of cellular uptake; settings: for Aufnahme in Zellen: summary statement in the description, citing FIG.1A/1B, 2, 3, 4
Text: Um die Aufnahme der Verbindungen in eukaryotische Zellen zu quantifizieren, wurden umfangreiche Durchflusszytometrieuntersuchungen mit den Verbindungen 2 bis 7 (Verbindungen 2 und 5 sind Vergleichsbeispiele) durchgeführt. Ferner wurden auch die aus dem Stand der Technik bekannten zellpenetrierenden Peptide Tat 10, Penetratin 11, Heptaarginin 12 und Decaarginin 13 untersucht. Zu diesem Zweck wurden auch die Peptide mit TAMRA markiert.
Zunächst wurden HeLa-Zellen mit den zu untersuchenden Substanzen bei einer Konzentration von 20 µM in serumfreiem DMEM bei 37°C für 10 Minuten inkubiert. Danach wurden die Zellen dreimal mit PBS gewaschen und nach einem Trypsinverdau nochmals mit PBS gewaschen. Danach wurden die Untersuchungen durchgeführt. […] Die Ergebnisse sind in FIG.2 zusammen gefasst.

[2] = system: HeLa-Zellen; experiment: Study of the uptake mechanism (temperature, concentration, serum) by fluorescence
Procedure: Es wurden weitere Fluoreszenzuntersuchungen an Verbindung 4 durchgeführt. […] Daraus kann angenommen werden, dass der Mechanismus energieunabhängig verläuft.
Ferner wurden HeLa-Zellen mit der Verbindung 4 bei unterschiedlichen Konzentrationen inkubiert. Schon bei 80 nM wurde eine Aufnahme in die Zellen beobachtet. Bei 1 µM wurde der größte Effekt beobachtet.
Darüber hinaus wurde untersucht, ob Serum die Aufnahme in die Zellen behindern kann. Dafür wurde die Inkubationslösung mit 2% fetalem Kälberserum versetzt.

[3] = system: HeLa-Zellen; experiment: Cell proliferation test (MTT) after short incubation; settings: free drug in PBS pH 5,5, different concentrations, 1, 2 and 3 h incubation, 1x10^4 HeLa cells, MTT after 18 h
Text: Um die Toxizität von Doxorubicin auf HeLa-Zellen zu untersuchen, wurde ein Inkubationszeitabhängiger Test mit dem freien Wirkstoff durchgeführt. Dafür wurde Doxorubicin in PBS bei pH 5,5 gelöst und bei unterschiedlichen Konzentrationen für 1 Stunde, 2 Stunden und 3 Stunden mit 1x10^4 HeLa-Zellen inkubiert. Nach dem Inkubieren wurden die Zellen mit DMEM gewaschen und nach 18 Stunden ein Zellproliferationstest (MTT) durchgeführt.
Danach wurde die oben gezeigte erfindungsgemäße Verbindung mit Doxorubicin als Cargo-Molekülstruktur getestet. Die Verbindung wurde - genau wie die Kontrollen (freies Doxorubicin, unbehandelte Zellen) -je dreifach bei gleicher Konzentration für eine Stunde inkubiert. Um die Disulfidbrücke zu schützen wurden die Zellen mit hoch-glucosehaltigem DMEM ohne Methionin, Cysteine und Glutamine gewaschen. Nach der Inkubation wurden die Zellen mit DMEM gewaschen und nach 18 Stunden wurde ein MTT-Assay durchgeführt. […] Die Ergebnisse sind in FIG.6 zusammen gefasst.

[4] = HeLa cells incubated at different concentrations

Compound: TAMRA-hepta-4-guanidinobuttersäure-COSS-amid [Verbindung 7]
- Aufnahme in Zellen [1]: besonders ausgeprägte Aufnahme in Zellen

Compound: TAMRA-heptaguanidin-COSS [Verbindung 4]
- Konzentration, bei der der größte Effekt beobachtet wurde [2, 4]: 1 µM
- Konzentration, bei der schon eine Aufnahme in die Zellen beobachtet wurde [2, 4]: 80 nM
- Aufnahme bei den unterschiedlichen Temperaturen ([2]; incubation at 37°C versus 4°C): kaum unterschiedlich
- Einfluss von Serum auf die Aufnahme in die Zellen ([2]; incubation solution with 2% fetal calf serum versus serum-free tests): kein Unterschied
- Aufnahme stärker ausgeprägt als die des Tat-Peptids ([1]; 20 µM, serum-free DMEM, 37°C, 10 min, fold versus TAMRA-labelled Tat peptide): 155 mal
- Aufnahme ([1]; 20 µM, serum-free DMEM, 37°C, 10 min, ranking among compounds 2 to 7 and TAMRA-labelled peptides 10 to 13, FIG.2): beste Aufnahme
- Aufnahme in Zellen [1]: besonders ausgeprägte Aufnahme in Zellen

Compound: COc1cccc2c1C(=O)c1c(O)c3c(c(O)c1C2=O)C[C@@](O)(C(=O)CO)C[C@@H]3O[C@H]1C[C@H](N)[C@H](O)[C@H](C)O1 [Doxorubicin, reference compound]
- Toxizität auf HeLa-Zellen [3]: mit längerer Inkubation nahm die Toxizität zu

Compound: TAMRA-hepta-4-trimethylammoniumbuttersäure-COSS-amid [Verbindung 6]
- Aufnahme in Zellen [1]: besonders ausgeprägte Aufnahme in Zellen

Compound: TAMRA-heptatrimethylammonium-COSS [Verbindung 3]
- Aufnahme in Zellen [1]: besonders ausgeprägte Aufnahme in Zellen
